Experimental data from patent US20240018125A1, “CYCLIC ISOTHIOUREA DERIVATIVES AS CXCR4 MODULATORS” (ERMIUM THERAPEUTICS, priority 2020, published 2024).
Counter-ions that a name gives are not always drawn. Like-named read-outs stand apart in the source and are kept apart here.

How the values were obtained:
[1] = test system: peripheral blood mononuclear cells (PBMCs) from healthy donors; experiment: IFN production by R848-activated PBMCs, quantified with twINNE luciferase reporter cell line; format: cell-based, human; settings: read-out: IC50 of anti-inflammatory activity (IFN production by activated PBMCs)
Procedure, shortened: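 Healthy-donor PBMCs (4.10^6/mL, RPMI/10% FBS) were pre-treated with compound, then stimulated with R848 at 5 μg/mL for 24 h. Supernatants were put on twINNE cells, which carry luciferase under five ISREs, for 24 h, and Bright-Glo luminescence was read. IC50 values came from variable-slope dose-response fits.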

Row | SMILES | melting point | other results
1 | COc1cc2nc3n(c2cc1OC)C(O)(CSC1=NCc2ccccc2N1)CS3.Cl (stereo not shown) | 235 to 240 °C | –
2 | CC1(C)CN2C(CSC3=NCc4ccccc4N3)=CSC2=N1 (as salt: hydrochloride) [Example 3, 3-(((3,4-dihydroquinazolin-2-yl)thio)methyl)-6,6-dimethyl-5,6-dihydroimidazo[2,1-b]thiazole dihydrochloride] | 245 to 249 °C | –
3 | CC1(C)CN=C(SCC2=CSC3=Nc4ccccc4CN23)N1 (as salt: hydrochloride) [Example 5, 3-(((5,5-dimethyl-4,5-dihydro-1H-imidazol-2-yl)thio)methyl)-5H-thiazolo[2,3-b]quinazoline dihydrochloride] | > 250 °C | –
4 | CC1(C)CN2C(CSC3=NCc4ccccc4CN3)=CSC2=N1 (as salt: hydrochloride) [Example 7, 3-(((2,5-dihydro-1H-benzo[e][1,3]diazepin-3-yl)thio)methyl)-6,6-dimethyl-5,6-dihydroimidazo[2,1-b]thiazole dihydrochloride] | 127 to 134 °C | –
5 | CC1(C)CN=C(SCC2=CSC3=NCc4ccccc4CN23)N1 (as salt: hydrochloride) [Example 8, 3-(((5,5-dimethyl-4,5-dihydro-1H-imidazol-2-yl)thio)methyl)-5,10-dihydrobenzo[e]thiazolo[3,2-a][1,3]diazepine dihydrochloride] | 244 to 247 °C | –
6 | C1=C(CSC2=NCc3ccccc3N2)N2Cc3ccccc3CN=C2S1 (as salt: hydrochloride) [Example 11, 3-(((3,4-dihydroquinazolin-2-yl)thio)methyl)-5,10-dihydrobenzo[e]thiazolo[3,2-a][1,3]diazepine dihydrochloride] | 189 to 193 °C | –
7 | C1=C(CSC2=NCc3ccccc3N2)N2Cc3ccccc3N=C2S1 (as salt: hydrochloride) [Example 12, 3-(((1,4-dihydroquinazolin-2-yl)thio)methyl)-5H-thiazolo[2,3-b]quinazoline dihydrochloride] | > 250 °C | –
8 | C1=C(CSC2=NCc3ccccc3N2)N2CC(C3CCCCC3)N=C2S1 (stereo not shown) (as salt: hydrochloride) [Example 15, 6-cyclohexyl-3-(((3,4-dihydroquinazolin-2-yl)thio)methyl)-5,6-dihydroimidazo[2,1-b]thiazole dihydrochloride] | 235 to 242 °C | –
9 | Fc1cccc2c1CN1C(CSC3=NCc4ccccc4N3)=CSC1=N2 (as salt: hydrochloride) [Example 18, 3-(((3,4-dihydroquinazolin-2-yl)thio)methyl)-6-fluoro-5H-thiazolo[2,3-b]quinazoline dihydrochloride] | 193 to 203 °C | –
10 | CC1(C)N=C(SCC2=CSC3=NCc4ccccc4CN23)Nc2ccccc21 (as salt: hydrochloride) [Example 21, 3-(((4,4-dimethyl-1,4-dihydroquinazolin-2-yl)thio)methyl)-5,10-dihydrobenzo[e]thiazolo[3,2-a][1,3]diazepine dihydrochloride] | > 250 °C | –
11 | Fc1cccc2c1CN=C(SCC1=CSC3=NCc4ccccc4CN13)N2 (as salt: hydrochloride) [Example 23, 3-(((5-fluoro-1,4-dihydroquinazolin-2-yl)thio)methyl)-5,10-dihydrobenzo[e]thiazolo[3,2-a][1,3]diazepine dihydrochloride] | > 240 °C | –
12 | C1=C(CSC2=N[C@@H](c3ccccc3)[C@H](c3ccccc3)N2)N2Cc3ccccc3CN=C2S1 (as salt: hydrochloride) [Example 24, 3-((((4S,5S)-4,5-diphenyl-4,5-dihydro-1H-imidazol-2-yl)thio)methyl)-5,10-dihydrobenzo[e]thiazolo[3,2-a][1,3]diazepine dihydrochloride] | 178 to 185 °C | –
13 | C1=C(CSC2=NCCc3ccccc3N2)N2Cc3ccccc3CN=C2S1 (as salt: hydrochloride) [Example 25, 3-(((4,5-dihydro-1H-benzo[d][1,3]diazepin-2-yl)thio)methyl)-5,10-dihydrobenzo[e]thiazolo[3,2-a][1,3]diazepine dihydrochloride] | > 250 °C | –
14 | C1=C(CSC2=NCC(C3CCCCC3)N2)N2Cc3ccccc3CN=C2S1 (stereo not shown) (as salt: hydrochloride) [Example 26, 3-(((4-cyclohexyl-4,5-dihydro-1H-imidazol-2-yl)thio)methyl)-5,10-dihydrobenzo[e]thiazolo[3,2-a][1,3]diazepine dihydrochloride] | 174 to 180 °C | –
15 | C1=C(CSC2=Nc3ccccc3C(c3ccccc3)N2)N2Cc3ccccc3CN=C2S1 (stereo not shown) (as salt: hydrochloride) [Example 27, 3-(((4-phenyl-3,4-dihydroquinazolin-2-yl)thio)methyl)-5,10-dihydrobenzo[e]thiazolo[3,2-a][1,3]diazepine dihydrochloride] | 203 to 210 °C | –
16 | C1=C(CSC2=NCc3ccccc3N2)N2Cc3cccnc3N=C2S1 (as salt: hydrochloride) [Example 28, 3-(((3,4-dihydroquinazolin-2-yl)thio)methyl)-5H-pyrido[2,3-d]thiazolo[3,2-a]pyrimidine trihydrochloride] | 180 to 190 °C | –

Row | SMILES | melting point | other results
17 | CCCCC1CN=C(SCC2=CSC3=Nc4ccccc4CN23)N1 (stereo not shown) (as salt: hydrochloride) [Example 29, 3-(((5-butyl-4,5-dihydro-1H-imidazol-2-yl)thio)methyl)-5H-thiazolo[2,3-b]quinazoline dihydrochloride] | 227 to 234 °C | –
18 | CC1(c2ccccc2)CN=C(SCC2=CSC3=NCc4ccccc4CN23)N1 (stereo not shown) (as salt: hydrochloride) [Example 30, 3-(((5-methyl-5-phenyl-4,5-dihydro-1H-imidazol-2-yl)thio)methyl)-5,10-dihydrobenzo[e]thiazolo[3,2-a][1,3]diazepine dihydrochloride] | 195 to 200 °C | –
19 | C1=C(CSC2=N[C@@H]3CCCC[C@H]3N2)N2Cc3ccccc3N=C2S1 (as salt: hydrochloride) [Example 32, 3-((((3aR,7aR)-3a,4,5,6,7,7a-hexahydro-1H-benzo[d]imidazol-2-yl)thio)methyl)-5H-thiazolo[2,3-b]quinazoline dihydrochloride] | > 250 °C | –
20 | C1=C(CSC2=NCC(Cc3ccccc3)N2)N2Cc3ccccc3N=C2S1 (stereo not shown) (as salt: hydrochloride) [Example 33, 3-(((5-benzyl-4,5-dihydro-1H-imidazol-2-yl)thio)methyl)-5H-thiazolo[2,3-b]quinazoline dihydrochloride] | > 250 °C | –
21 | COc1ccc(CC2(C)CN=C(SCC3=CSC4=NCc5ccccc5CN34)N2)cc1 (stereo not shown) (as salt: hydrochloride) [Example 34, 3-(((5-(4-methoxybenzyl)-5-methyl-4,5-dihydro-1H-imidazol-2-yl)thio)methyl)-5,10-dihydrobenzo[e]thiazolo[3,2-a][1,3]diazepine dihydrochloride] | 173 to 180 °C | –
22 | C1=C(CSC2=NCc3ccccc3N2)N2CCc3ccccc3N=C2S1 (as salt: hydrochloride) [Example 35, 3-(((3,4-dihydroquinazolin-2-yl)thio)methyl)-5,6-dihydrobenzo[d]thiazolo[3,2-a][1,3]diazepine dihydrochloride] | 248 to 249 °C | –
23 | CN1CCN=C1SCC1=CSC2=Nc3ccccc3CN12 (as salt: hydrochloride) [Example 36, 3-(((1-methyl-4,5-dihydro-1H-imidazol-2-yl)thio)methyl)-5H-thiazolo[2,3-b]quinazoline dihydrochloride] | 247 to 248 °C | –
24 | CCCCN1CCN=C1SCC1=CSC2=NCc3ccccc3CN12 (as salt: hydrochloride) [Example 37, 3-(((1-butyl-4,5-dihydro-1H-imidazol-2-yl)thio)methyl)-5,10-dihydrobenzo[e]thiazolo[3,2-a][1,3]diazepine dihydrochloride] | 206 to 212 °C | –
25 | CC1(c2ccccc2)CN2C(CSC3=NCc4ccccc4N3)=CSC2=N1 (stereo not shown) (as salt: hydrochloride) [Example 38, 3-(((3,4-dihydroquinazolin-2-yl)thio)methyl)-6-methyl-6-phenyl-5,6-dihydroimidazo[2,1-b]thiazole dihydrochloride] | 230 to 235 °C | –
26 | C1=C(CSC2=NCc3ccccc3N2)N2C(=Nc3ccccc3C2c2ccccc2)S1 (stereo not shown) (as salt: hydrochloride) [Example 43, 3-(((3,4-dihydroquinazolin-2-yl)thio)methyl)-5-phenyl-5H-thiazolo[2,3-b]quinazoline dihydrochloride] | 184 to 190 °C | –
27 | COc1ccc(CC2(C)CN3C(CSC4=NCc5ccccc5N4)=CSC3=N2)cc1 (stereo not shown) (as salt: hydrochloride) [Example 46, 3-(((3,4-dihydroquinazolin-2-yl)thio)methyl)-6-(4-methoxybenzyl)-6-methyl-5,6-dihydroimidazo[2,1-b]thiazole dihydrochloride] | 156 to 168 °C | –
28 | c1ccc(CC2CN=C(SCCN3CCCCC3)N2)cc1 (stereo not shown) (as salt: hydrochloride) [Example 50, 1-(2-((5-benzyl-4,5-dihydro-1H-imidazol-2-yl)thio)ethyl)piperidine dihydrochloride] | 50 to 60 °C | –
29 | CN1CCCC1CSC1=NCC(Cc2ccccc2)N1 (stereo not shown) (as salt: hydrochloride) [Example 53, 5-benzyl-2-(((1-methylpyrrolidin-2-yl)methyl)thio)-4,5-dihydro-1H-imidazole dihydrochloride] | 70 to 80 °C | –
30 | CN1CC[C@H](SC2=NCCc3ccccc3N2)C1 [Example 200, (S)-2-((1-methylpyrrolidin-3-yl)thio)-4,5-dihydro-3H-benzo[d][1,3]diazepine dihydrochloride] | – | IC50 ([1]; Homo sapiens, PBMC): ≤ 10 µM
31 | CC1(C)CN2C(CSC(=NC3CCCCC3)NC3CCCCC3)=CSC2=N1 [IT1t, reference compound] | – | IC50 ([1]; PBMCs from 2 healthy donors, R848 5 μg/mL, IFN in supernatant by twINNE luciferase reporter, IT1t value is mean of at least 7 independent sets): 32 µM
